Several values for one entry are separate records, joined by “and”; a condition that tells them apart may be missing. Equal values may be shown once.
System: 324938-238-R-J1-PDC complex spheroid viability
Test: Anticancer human tumor 324938-238-R-J1-PDC patient-derived bladder carcinoma cell line growth inhibition
Conditions: for viability, T/C: stronger effect = lower value; active = viability on the fitted dose curve at most 10% of control; inactive = the rest
Procedure, shortened: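 Drug combinations with the LSD1 inhibitor iadademstat tested on tumor cells co-cultured as spheroids with endothelial cells and mesenchymal stem cells. Concentrations descended in half-log increments from clinical Cmax or 10 microM.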

[1] = curve of first compound, second compound 0.1 µM
[2] = curve of first compound, second compound 0.316 µM
[3] = curve of first compound, second compound 1 µM
[4] = curve of first compound, second compound 3.16 µM
[5] = curve of first compound, second compound 10 µM
[6] = second compound 0.1 µM, first compound 0.00949 µM
[7] = second compound 0.1 µM, first compound 0.03 µM
[8] = second compound 0.1 µM, first compound 0.0949 µM
[9] = second compound 0.1 µM, first compound 0.3 µM
[10] = second compound 0.1 µM, first compound 0.949 µM
[11] = second compound 0.1 µM, first compound 3 µM
[12] = second compound 0.316 µM, first compound 0.00949 µM
[13] = second compound 0.316 µM, first compound 0.03 µM
[14] = second compound 0.316 µM, first compound 0.0949 µM
[15] = second compound 0.316 µM, first compound 0.3 µM
[16] = second compound 0.316 µM, first compound 0.949 µM
[17] = second compound 0.316 µM, first compound 3 µM
[18] = second compound 1 µM, first compound 0.00949 µM
[19] = second compound 1 µM, first compound 0.03 µM
[20] = second compound 1 µM, first compound 0.0949 µM
[21] = second compound 1 µM, first compound 0.3 µM
[22] = second compound 1 µM, first compound 0.949 µM
[23] = second compound 1 µM, first compound 3 µM
[24] = second compound 3.16 µM, first compound 0.00949 µM
[25] = second compound 3.16 µM, first compound 0.03 µM
[26] = second compound 3.16 µM, first compound 0.0949 µM
[27] = second compound 3.16 µM, first compound 0.3 µM
[28] = second compound 3.16 µM, first compound 0.949 µM
[29] = second compound 3.16 µM, first compound 3 µM
[30] = second compound 10 µM, first compound 0.00949 µM
[31] = second compound 10 µM, first compound 0.03 µM
[32] = second compound 10 µM, first compound 0.0949 µM
[33] = second compound 10 µM, first compound 0.3 µM
[34] = second compound 10 µM, first compound 0.949 µM
[35] = second compound 10 µM, first compound 3 µM
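Also: spheroids also contain HUVEC and human MSCs and agents combined with iadademstat; spheroids exposed to agents for 7 days before readout.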

COc1cc(C2c3cc4c(cc3C(OC3OC5COC(C)OC5C(O)C3O)C3COC(=O)C23)OCO4)cc(OC)c1O (stereo not drawn) + NC1CC1c1ccc(-c2cccc(O)c2)cc1
inactive: viability, T/C [6] 82.3% | viability, T/C [7] 74.6% | viability, T/C [8] 35.1% | viability, T/C [9] 18.9% | viability, T/C [10] 20.9% | viability, T/C [11] 10.6% | viability, T/C [12] 69.8% | viability, T/C [13] 67.1% | viability, T/C [14] 38.4% | viability, T/C [15] 22.2% | viability, T/C [16] 17.6% | viability, T/C [17] 8.16% | viability, T/C [18] 67.9% | viability, T/C [19] 60% | viability, T/C [20] 34% | viability, T/C [21] 19.6% | viability, T/C [22] 19.2% | viability, T/C [23] 7.9% | viability, T/C [24] 74% | viability, T/C [25] 59% | viability, T/C [26] 35.6% | viability, T/C [27] 23.3% | viability, T/C [28] 17.3% | viability, T/C [29] 11.7% | viability, T/C [30] 73.5% | viability, T/C [31] 54.8% | viability, T/C [32] 34.3% | viability, T/C [33] 27.5% | viability, T/C [34] 16.8% | viability, T/C [35] 11.7%
61.7 nM: IC50 [1]
45.8 nM: IC50 [3]
60.3 nM: IC50 [2]
46.5 nM: IC50 [4]
38.2 nM: IC50 [5]

Nc1ccccc1NC(=O)c1ccc(CNC(=O)OCc2cccnc2)cc1
555 nM and 507 nM: IC50 (curve of compound)
inactive: viability, T/C (compound 0.00949 µM) 112% and 111% | viability, T/C (compound 0.03 µM) 107% and 111% | viability, T/C (compound 0.0949 µM) 96.8% and 88.3% | viability, T/C (compound 0.3 µM) 63.3% and 59.8% | viability, T/C (compound 0.949 µM) 37.7% and 37.5%
9.59% and 7.01%: viability, T/C (compound 3 µM)

CC(C)CC(NC(=O)C(Cc1ccccc1)NC(=O)c1cnccn1)B(O)O (stereo not drawn)
active: viability, T/C (compound 0.00316 µM) 0.55% and 0.19% | viability, T/C (compound 0.01 µM) 0.21% and 1.23% | viability, T/C (compound 0.0316 µM) 0.46% and 0.17% | viability, T/C (compound 0.1 µM) 0.24% and 0.28%
21.5% and 7.74%: viability, T/C (compound 0.001 µM)
0.643 nM and 0.508 nM: IC50 (curve of compound)
inactive: viability, T/C (compound 0.000316 µM) 95.8% and 79.7%

CC(C)c1c(-c2ccccc2)nc2c(C#N)c[nH]n2c1=O + NC1CCC(NC2CC2c2ccccc2)CC1
> 10000 nM: IC50 [1] | IC50 [2] | IC50 [3] | IC50 [4] | IC50 [5]
inactive: viability, T/C (second compound 0.1 µM, first compound 0.0316 µM) 69.7% | viability, T/C (second compound 0.1 µM, first compound 0.1 µM) 90% | viability, T/C (second compound 0.1 µM, first compound 0.316 µM) 85.2% | viability, T/C (second compound 0.1 µM, first compound 1 µM) 89.2% | viability, T/C (second compound 0.1 µM, first compound 3.16 µM) 82.2% | viability, T/C (second compound 0.1 µM, first compound 10 µM) 74.6% | viability, T/C (second compound 0.316 µM, first compound 0.0316 µM) 83% | viability, T/C (second compound 0.316 µM, first compound 0.1 µM) 84.1% | viability, T/C (second compound 0.316 µM, first compound 0.316 µM) 84.4% | viability, T/C (second compound 0.316 µM, first compound 1 µM) 84.8% | viability, T/C (second compound 0.316 µM, first compound 3.16 µM) 81.4% | viability, T/C (second compound 0.316 µM, first compound 10 µM) 78.7% | viability, T/C (second compound 1 µM, first compound 0.0316 µM) 87% | viability, T/C (second compound 1 µM, first compound 0.1 µM) 90% | viability, T/C (second compound 1 µM, first compound 0.316 µM) 78.2% | viability, T/C (second compound 1 µM, first compound 1 µM) 84.9% | viability, T/C (second compound 1 µM, first compound 3.16 µM) 81.6% | viability, T/C (second compound 1 µM, first compound 10 µM) 80.9% | viability, T/C (second compound 3.16 µM, first compound 0.0316 µM) 72.8% | viability, T/C (second compound 3.16 µM, first compound 0.1 µM) 78.9% | viability, T/C (second compound 3.16 µM, first compound 0.316 µM) 87.7% | viability, T/C (second compound 3.16 µM, first compound 1 µM) 80.6% | viability, T/C (second compound 3.16 µM, first compound 3.16 µM) 80.1% | viability, T/C (second compound 3.16 µM, first compound 10 µM) 74.3% | viability, T/C (second compound 10 µM, first compound 0.0316 µM) 66.5% | viability, T/C (second compound 10 µM, first compound 0.1 µM) 70.7% | viability, T/C (second compound 10 µM, first compound 0.316 µM) 75.9% | viability, T/C (second compound 10 µM, first compound 1 µM) 75.1% | viability, T/C (second compound 10 µM, first compound 3.16 µM) 65.6% | viability, T/C (second compound 10 µM, first compound 10 µM) 77.9%

CC(C)c1c(-c2ccccc2)nc2c(C#N)c[nH]n2c1=O
> 10000 nM: IC50 (curve of compound)
inactive: viability, T/C (compound 0.0316 µM) 98.8% and 110% | viability, T/C (compound 0.1 µM) 108% and 110% | viability, T/C (compound 0.316 µM) 96.5% and 120% | viability, T/C (compound 1 µM) 92.4% and 107% | viability, T/C (compound 3.16 µM) 89.5% and 95.7% | viability, T/C (compound 10 µM) 81.7% and 80.9%

Nc1ccccc1NC(=O)c1ccc(CNC(=O)OCc2cccnc2)cc1 + NC1CCC(NC2CC2c2ccccc2)CC1
465 nM: IC50 [3]
390 nM: IC50 [2]
412 nM: IC50 [1]
363 nM: IC50 [4]
375 nM: IC50 [5]
inactive: viability, T/C [6] 92% | viability, T/C [7] 81.6% | viability, T/C [8] 68.5% | viability, T/C [9] 54.4% | viability, T/C [10] 39.9% | viability, T/C [11] 17.2% | viability, T/C [12] 84.3% | viability, T/C [13] 88% | viability, T/C [14] 67.6% | viability, T/C [15] 55% | viability, T/C [16] 34.6% | viability, T/C [17] 12.9% | viability, T/C [18] 79% | viability, T/C [19] 76.2% | viability, T/C [20] 73.3% | viability, T/C [21] 54.5% | viability, T/C [22] 39.2% | viability, T/C [23] 14.9% | viability, T/C [24] 81.5% | viability, T/C [25] 72.4% | viability, T/C [26] 62% | viability, T/C [27] 54.9% | viability, T/C [28] 37.9% | viability, T/C [29] 16% | viability, T/C [30] 76.8% | viability, T/C [31] 68.9% | viability, T/C [32] 68.2% | viability, T/C [33] 50.5% | viability, T/C [34] 37.8% | viability, T/C [35] 12.4%

O=C(C=Cc1cccc(S(=O)(=O)Nc2ccccc2)c1)NO
inactive: viability, T/C (compound 0.00949 µM) 95.5% and 107% | viability, T/C (compound 0.03 µM) 89.1% and 92.1% | viability, T/C (compound 0.0949 µM) 71% and 70% | viability, T/C (compound 0.3 µM) 46.1% and 42.8% | viability, T/C (compound 0.949 µM) 26.1% and 24.2%
273 nM and 237 nM: IC50 (curve of compound)
active: viability, T/C (compound 3 µM) 4.98% and 3.24%

Nc1ccn(C2OC(CO)C(O)C2(F)F)c(=O)n1 (stereo not drawn) + NC1CCC(NC2CC2c2ccccc2)CC1
active: viability, T/C (second compound 0.1 µM, first compound 0.000949 µM) 7.42% | viability, T/C (second compound 0.1 µM, first compound 0.003 µM) 7.71% | viability, T/C [6] 7.38% | viability, T/C [7] 6.53% | viability, T/C [8] 5.05% | viability, T/C [9] 5.23% | viability, T/C (second compound 0.316 µM, first compound 0.003 µM) 7.95% | viability, T/C [12] 6.91% | viability, T/C [13] 7.37% | viability, T/C [14] 5.53% | viability, T/C [15] 5.05% | viability, T/C (second compound 1 µM, first compound 0.003 µM) 9.08% | viability, T/C [18] 8.5% | viability, T/C [19] 7.08% | viability, T/C [20] 5.53% | viability, T/C [21] 5.33% | viability, T/C (second compound 3.16 µM, first compound 0.003 µM) 8.82% | viability, T/C [24] 9.28% | viability, T/C [25] 7.53% | viability, T/C [26] 5.27% | viability, T/C [27] 5.32% | viability, T/C (second compound 10 µM, first compound 0.003 µM) 9.1% | viability, T/C [30] 9.36% | viability, T/C [31] 8.14% | viability, T/C [32] 4.93% | viability, T/C [33] 5.8%
inactive: viability, T/C (second compound 0.316 µM, first compound 0.000949 µM) 10.3% | viability, T/C (second compound 1 µM, first compound 0.000949 µM) 9.63% | viability, T/C (second compound 3.16 µM, first compound 0.000949 µM) 10.8% | viability, T/C (second compound 10 µM, first compound 0.000949 µM) 11.8%
< 0.949 nM: IC50 [1] | IC50 [2] | IC50 [3] | IC50 [4] | IC50 [5]

Reference: PubChem BioAssay AID1918935 (Molecular Pharmacology Branch, DTP, NCI, 2023)
